The values that follow come from patent publication US20220272990A1, “Methods and Compositions of the Botanical Extract to Promote and Boost Plant Growth and Prevent and Suppress Plant Diseases” (priority 2019, published 2022).

One experiment concerns Fusarium graminearum. Type of experiment: cell-based. To be noted: thyme, yarrow extracts; 35% ethanol.
Another experiment deals with Xanthomonas campestris. The experiment can be described thus: Burkholder's spot bioassay on carpet of bacteria. Format: cell-based.
The test system of the next experiment is Aspergillus ochraceus. The experiment is described as follows: Antifungal and MIC spot assay on carpet of fungi. Conditions: composition 1% + thymol 1:768, or thymol 1:768 alone.
In another experiment the test system is Salmonella (S31). The experiment can be described thus: Burkholder's spot bioassay on carpet of bacteria. Type of experiment: cell-based. Conditions: Salmonella spp. (S531); composition 2% + thymol 1:512, or single dose of thymol 1:512. The text has this:
Referring now to FIG. 28, Salmonella (S31—mungbean sprout isolate) treated with thyme is shown.

For another experiment, the system named is Env. Salmonella (S22). The experiment is described as follows: Burkholder's spot bioassay on carpet of bacteria. To be noted: Salmonella spp. (S22); composition 2% + thymol 1:512, or single dose of thymol 1:512. Type of experiment: cell-based. The protocol: Referring now to FIGS. 26A to 26C, environmental Salmonella (S22) treated with thyme, yarrow, the botanical composition and control (C) are shown. […] A determined volume of (i.e. 10 μl) dissolved extract from each concentration is spotted on carpet of bacteria.

The subject of experiment [1] is Pathogenic Salmonella (S1). The experiment is described as follows: Burkholder's spot bioassay on carpet of bacteria. Type of experiment: cell-based. Conditions: Salmonella spp. (SL1); composition 2% + thymol 1:512, or single dose of thymol 1:512.

Turning to `CCO` [35% ethanol, ethanol], the “inhibition of spore germination” value with Fusarium graminearum is “complete inhibition”.

For `Cc1ccc(C(C)C)c(O)c1` [thymol], the antimicrobial effectiveness result (with Xanthomonas campestris; in the experiment with Salmonella (S31); with Env. Salmonella (S22); in experiment [1]) was “not effective” in each case. Further, the “antifungal effectiveness on growth” value in the experiment with Aspergillus ochraceus is recorded as “not effective”.
